Measured values from patent publication US11541065B2, “Compositions and methods for treating brain injury” (UNM RAINFOREST INNOVATIONS, priority 2018, dated 2023).

Assays:
[1] = system: neuron cultures from WT and GluN2A-KO mice; assay: Neuronal cell death by Hoechst DNA staining, WT and GluN2A-KO mouse neuron cultures; type: cell-based; conditions: for neuronal death: homocysteine 50 μM, 18 hours; for cell death: L-homocysteine 50 μM, 24 hours
Experimental: Neurons were subjected to staining with Hoechst 33342 dye for 15 minutes, washed extensively with PBS, and analyzed using fluorescent microscopy to assess nuclear damage. Imaging was performed with a Zeiss Axiovert 200M fluorescence microscope with attached AxioCam CCD camera using 20× objective lens (Carl Zeiss, Thomwood, N.Y.). To quantitatively assess the percentage of pyknotic nuclei a total of 1000 cells were counted for each set of experiments. Mean±SEM (n=3) were used for statistical comparison using ANOVA (Bonferroni's multiple comparison test). Differences were considered significant when p<0.05.
[…] Glutamate treated cells were then maintained in their original medium for another 17 hours. For some experiments, neurons were treated with L-homocysteine or glutamate in the presence of NVP-AAM077 or PD98059. The neurons were then fixed and stained with Hoechst 33342 dye as previously described (Poddar and Paul, 2009, J Neurochem 110:1095-1106). Percentage of pyknotic nuclei was quantitatively assessed by fluorescent microscopy to determine the extent of neuronal death.

IκB = IκB degradation in rat neuronal cultures (immunoblot); type: cell-based; conditions: rat neurons, homocysteine 50 μM, four hours, alone
Experimental: Rat and mice neuronal cultures were washed with PBS (pH 7.4), containing sodium pyrophosphate and sodium vanadate as phosphatase inhibitors, and harvested in SDS sample buffer (Laemmli, 1970, Nature 227:680-685). Equal protein from total cell lysates, estimated using BCA kit, was resolved by SDS-PAGE (7.5%) followed by western blotting on PVDF membranes. Immunoblot analysis was performed by first blocking with 5% non-fat dry milk for 1 h at room temperature followed by incubation with either COX2 immunoblot analysis (Poddar and Paul, 2009, J Neurochem 110:1095-1106) as described in each experiment. All primary antibodies and horseradish peroxidase conjugated secondary antibodies were used according to manufacturer's recommendations. Signals from immune complexes in the blots were developed using West Pico supersignal chemiluminescence reagents and then captured on X-ray films. Densitometric analysis of the images was performed using the NIH Image J software.

ERK MAPK = ERK MAPK phosphorylation in ipsilateral cortex after MCAO (immunoblot); type: in vivo, Wistar rats; conditions: HHcy rats, MCAO 60 min, three hours of reperfusion, vs vehicle treated rats
Experimental: FIG. 10. ERK MAPK phosphorylation. (A) Control and hyperhomocysteinemic (HHcy) rats were subjected to MCAO for 60 min followed by reperfusion (sham, 0, 3, 6, 12 h). Cortical tissue lysates from the ipsilateral hemisphere were analyzed by immunoblotting, using anti-pERK and anti-ERK antibodies. (B) Control, HHcy and HHcy rats treated with NVP-AAM077 (HHcy+NVP) were subjected to MCAO for 60 min followed by reperfusion for 3 h. Cortical tissue lysates from the ipsilateral hemisphere were analyzed by immunoblotting, using anti-pERK and anti-ERK antibodies. The extent of ERK MAPK phosphorylation was quantified using computer-assisted densitometry and Image J analysis. Values are mean±SEM (n=5). (A) *p<0.001 from corresponding control. (B) *p<0.001 from HHcy.
Next, whether a mild ischemic insult under hyperhomocysteinemic condition could lead to prolonged increase in ERK MAPK phosphorylation was evaluated using a middle cerebral artery occlusion (MCAO) model. Normal and hyperhomocysteinemic Wistar rats were subjected to MCAO for 60 minutes followed by reperfusion for specified time periods (0, 3, 6, 12 h). […] NVP-AM077, however, blocks the prolonged phosphrylation of ERK MAPK in hyperhomocysteinemic rats at three hours of reperfusion. […]

PGE2 = PGE2 level in ischemic brain (ELISA); type: in vivo, Wistar rats; conditions: HHcy rats, MCAO 60 minutes, six hours of reperfusion, NVP-AAM077 1.2 mg/kg intravenous at onset of insult
Experimental: Wistar rats were made hyperhomocysteinemic using osmotic pump containing L-homocysteine. Animals were hyperhomocysteinemic (19-23 μM) within three days of pump implantation. Ischemic stroke was induced by MCAO for 60 minutes followed by reperfusion for six hours. Tissue punches from the ipsilateral striatum and cortex were lysed in ice-cold Phosphate buffered saline (pH 7.4) containing phosphatase inhibitor, sonicated three times in five-second bursts and placed on ice (two minutes) between each burst of sonication. The lysed cell suspensions were centrifuged at 10,000 rpm (10 minutes) and the supernatant was collected in another tube. Equal amounts of protein from the supernatant were processed for PGE2 and MCP-1 levels using respective ELISA kit.

SMILES | neuronal death ([1]; cultures from GluN2A KO mice) | neuronal death ([1]; cultures from WT mice) | cell death ([1]; neurons from GluN2A-NMDAR knockout mice) | cell death ([1]; neurons from WT mice) | cellular level of IκB (IκB) | ERK MAPK phosphorylation in ipsilateral cortex (ERK MAPK) | PGE2 level in ischemic hemisphere (cortex and striatum) (PGE2)
N[C@@H](CCS)C(=O)O [L-homocysteine] | fails to induce neurotoxicity | significantly increases neuronal death | fails to alter cell death | significant increase in cell death | significant decrease in the cellular level of IκB |  | 
C[C@H](NC(c1cccc2[nH]c(=O)c(=O)[nH]c12)P(=O)(O)O)c1ccc(Br)cc1 (stereo partly drawn) [NVP-AAM077, ({[(1S)-1-(4-bromophenyl)ethyl]amino}-(2,3-dioxo-1,4-dihydroquinoxalin-5-yl)methyl)phosphonic acid] |  |  |  |  |  | significant reduction ERK MAPK phosphorylation | attenuated the increase in the level of both PGE2 and MCP-1
